“Also recorded” adds a separate entry of the source.
Assays:
[1] = system: type III collagen, tenascin and fibronectin; assay: Western blot of TGF-β1 activated rabbit corneal keratocytes: type III collagen, tenascin, fibronectin; assay type: cell-based; conditions: TGF-β1 (10 ng/ml)+1% FBS, two days, compared to controls with no treatment
Experimental: (§1) FIGS. 19A and 19B. Western blot analyses: Rabbit corneal keratocytes were isolated and cultured in serum-free DMEM/F12 into 60 mm tissue culture dishes. After 24 hrs of incubation, the media were replaced with DMEM/F12 medium containing TGF-β1(10 ng/ml)+1% FBS without (control) or with EP or EP-derivatives for two days. The cells were extracted in RIPA buffer and the extracts containing 5 μg of total proteins were loaded per lane for Western blot analysis.
(§2) Keratocytes or fibroblasts grown under different culture conditions were extracted in RIPA buffer (9.1 mM dibasic sodium phosphate, 1.7 mM monobasic sodium phosphate, 150 mM NaCl, pH, 7.4, 1% Nonidet P-40, 0.5% sodium deoxycholate, 0.1% SDS, 0.03 TIU/mL aprotinin, 1 mM sodium orthovanadate, and 100 μg/mL phenylmethylsulfonyl fluoride (PMSF)). Aliquots of cell extracts containing 50 or 100 μg protein were subjected to SDS-PAGE. Protein bands on SDS-PAGE were electrophoretically transferred to IMMOBILON-P™ membrane (Millipore Corp., Bedford, Mass.), stained with 0.1% Coomassie blue 250 in 40% methanol/1% acetic acid for 1 minute, destained one to three times with 50% methanol/1% acetic acid, scanned for densitometric comparisons of relative concentrations of proteins per lane, destained with methanol, and subjected to Western blot analysis. Immunoreactive bands were detected using chemiluminescence Western chemiluminescence reagents.
(§3) As described in Example 1, corneal stromal cells were isolated from rabbit corneas and cultured using the same procedures. The keratocytes in serum free media were treated with b-FGF (40 ng/ml)+HS (5 μg/ml) with or without 15 mM EP or 1, 2.5 or 5 mM following EP derivatives: 2-oxopropionic acid 3-methoxyphenyl ester, 2-oxopropionic acid 2-ethoxyethyl ester, 2-oxopropionic acid 2-chloroethyl ester, 2-oxopropionic acid isopropyl ester, 2-oxopropionic acid butyl ester, 2-oxopropionic acid p-tolyl ester, 2-oxopropionic acid tert-butyl ester. […] The relative levels of the expression of specific proteins were analyzed by Western blot analyses of the cell lysates as described supra.

[2] = system: alpha-smooth muscle actin; assay: Western blot of TGF-β1 activated rabbit corneal keratocytes: alpha-smooth muscle actin; assay type: cell-based; conditions: TGF-β1 (10 ng/ml)+1% FBS, two days, compared to controls with no treatment
Experimental: as §1, §2, §3

SMILES	levels of type III collagen, tenascin and fibronectin (Western blot) [1]	alpha-smooth muscle actin levels (Western blot) [2]
CC(=O)C(=O)OCCCl [2-oxopropionic acid 2-chloroethyl ester]	reduced levels	reduced expression; also recorded: reduced levels
CC(=O)C(=O)Oc1ccc(C)cc1 [2-oxopropionic acid p-tolyl ester]	reduced levels	reduced expression; also recorded: reduced levels

Source: US8815946B2, “Inhibition of proliferation and fibrotic response of activated corneal stromal cells” (University of Pittsburgh—of the Commonwealth System of …, priority 2008, dated 2014)
